Measured values taken from US20210353626A1, “BETA-ADRENERGIC RECEPTOR ALLOSTERIC MODULATORS” (THE REGENTS OF THE UNIVERSITY OF CALIFORNIA, priority 2018, published 2021).

How the values were obtained:
[1] = target: T1, β2AR (Homo sapiens, UniProt P07550); assay: β-arrestin-2 recruitment assay (PathHunter enzyme fragment complementation), norepinephrine-stimulated; type: cell-based; conditions: for negative allosteric effect on norepinephrine-stimulated β-arrestin 2 recruitment (in words): analogs tested at 10 μM and 30 μM compared to norepinephrine alone (FIG. 9); for inhibition at 30 µM: arrestin recruitment stimulated by norepinephrine after preincubation with 30 μM of the test compound; for inhibition at 30 µM / inhibition at 10 µM: read-out: attenuation of Emax (maximum efficacy of norepinephrine); for inhibition at 10 µM: arrestin recruitment stimulated by norepinephrine, attenuating effect at 10 μM of the test compound
T1 construct: host or cells: HEK293 cells stably expressing (EA)-β-arrestin-2
Protocol: (§1) β-Arrestin-2 Recruitment Assay. Determination of β-arrestin-2 recruitment was performed applying the PathHunter assay (DiscoverX, Birmingham, U.K.) which is based on fragment complementation of β-galactosidase in HEK293 cells stably expressing (EA)-β-arrestin-2 and being transiently transfected with a receptor tagged to the PK fragment. In general, cells were transfected employing Mirus TransIT-293 (peqlab, Erlangen, Germany) and incubated in DMEM/F12 medium (Life Technologies, Darmstadt, Germany) at 37° C. and 5% of CO2. After 24 hrs cells were detached with Versene (Life Technologies) and transferred into 384-well plates (white plate, transparent bottom, Greiner Bio-One, Frickenhausen, Germany) at a density of 5000 cells/well using the medium CP4 Reagent (DiscoverX). After further 24 hrs of incubation test compounds dissolved in PBS were added to the cells at a final volume of 25 μL and incubated at 37° C. for a distinct time which was optimized for each receptor (details are summarized in the supporting information). Determination of β-arrestin-2 recruitment was started by adding detection mix, incubation at room temperature for 60 min and measuring chemoluminescence with a Clariostar plate reader (BMG, Ortenberg, Germany). For measuring allosteric effects the modulator was preincubated with the cells at a distinct concentration for 30 min followed by the addition of reference agonist. Data analysis of functional experiments were performed by normalizing the raw data relative to basal activity (0%) and the maximum effect of the reference agonist (100%). Normalized curves from three to seven individual experiments each done as duplicate were analyzed by non-linear regression applying the algorithms in Prism 6.0 (GraphPad, San Diego, Calif.) to get dose-response curves representing average EC50 and Emax value.
β-Arrestin-2 Recruitment Assay. β-Arrestin-2 recruitment was performed applying the fragment complementation assay PathHunter (DiscoverX) with HEK293 cells stably expressing (EA)-β-arrestin-2. The appropriate receptor was transiently transfected when using a specific pCMV vectors with the PK-tag located at different distances downstream of the C-terminus of the inserted receptor (PK1, PK2 and PK-ARMS2, purchased from DiscoverX, Birmingham, UK). ADRB2-PK encoding the human β2AR was purchased from DiscoverX, while all other vectors with related GPCRs were engineered by inserting the DNA of the appropriate receptor in frame into the different PK constructs further excluding the stop codon. Mutants of the β2AR were done applying polymerase chain reaction with appropriate primers.

[2] = target: T2, β1AR (Mus musculus, UniProt P34971); assay: β-arrestin-2 recruitment assay, subtype selectivity; type: cell-based
T2 construct: expressed in transfected cells; host or cells: HEK293 cells stably expressing (EA)-β-arrestin-2
Protocol: as §1
(§2) β-Arrestin-2 Recruitment Assay. β-Arrestin-2 recruitment was performed applying the fragment complementation assay PathHunter (DiscoverX) with HEK293 cells stably expressing (EA)-β-arrestin-2. […]

[3] = target: T3, α1AAR (Homo sapiens, UniProt P35348); assay: as above; type: cell-based
T3 construct: expressed in transfected cells; host or cells: HEK293 cells stably expressing (EA)-β-arrestin-2
T3 sequence (P35348 1-466): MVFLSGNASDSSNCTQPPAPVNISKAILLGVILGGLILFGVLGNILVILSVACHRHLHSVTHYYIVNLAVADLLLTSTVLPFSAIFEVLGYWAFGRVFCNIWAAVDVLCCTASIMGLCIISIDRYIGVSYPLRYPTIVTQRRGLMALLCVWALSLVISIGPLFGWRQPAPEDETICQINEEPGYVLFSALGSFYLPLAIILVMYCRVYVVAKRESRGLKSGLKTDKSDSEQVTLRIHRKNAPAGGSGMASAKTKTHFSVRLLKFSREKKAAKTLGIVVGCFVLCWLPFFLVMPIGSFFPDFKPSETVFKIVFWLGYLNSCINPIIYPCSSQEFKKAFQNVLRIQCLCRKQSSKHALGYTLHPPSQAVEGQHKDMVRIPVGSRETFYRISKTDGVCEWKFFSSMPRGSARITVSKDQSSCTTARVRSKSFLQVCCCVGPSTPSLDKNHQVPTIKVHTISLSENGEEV
Protocol: as §1, §2

[4] = test system: other Family A GPCRs (α2AAR, 5-HT1AR, M2AChR, D2longDR, PAR2, NTS1R, μOR, κOR, δOR); assay: as above; type: cell-based
Protocol: as §1, §2

[5] = test system: β2AR E122^3.41 mutants (E122L, E122Q, E122R); assay: Radioligand binding assay with [3H]DHAP, E122 mutants; design: species or system human; conditions: all of the mutants, relative to wild type
Protocol: Membranes prepared from Sf9 cells infected with baculoviruses expressing β2AR (wt) or E122 mutants in the absence or presence of co-expressed Gs heterotrimer were assessed by radioligand binding with [^3H]DHAP. […] Ki's were determined using Graphpad (Prism, San Diego) using the Kd of [^3H]DHAP specific for β2AR (wt) and each mutant, according to the Cheng-Prusoff equation. Values for high affinity agonist site (Khigh) and low affinity site (Klow) from membranes prepared from β2AR (wt) or mutants co-infected with Gs heterotrimer were determined by non-linear regression fitting (2-site) using Kd values of [^3H]DHAP, as above (Graphpad, San Diego).
Radioligand binding assay. […] Samples were taken at varying time points, filtered and washed as described below to remove free [^3H]formoterol. For [^3H]DHAP saturation isotherms of β2AR and mutants, membranes were incubated with varying concentrations of [^3H]DHAP and filtered as described below. Samples were subject to rapid filtration through GF/B membranes and rinsed with ice cold binding buffer to remove free [^3H]probe. Filter plates were dried before adding Microscint 0 and counting bound [^3H]probe using a Packard TopCount. All data were analyzed using Graphpad (Prism, San Diego Calif.).

[6] = target: T1, β2AR; assay: cAMP accumulation assay (FRET-Epac sensor); type: cell-based
Protocol: cAMP accumulation assays. Intact cell cAMP accumulation was measured using the FRET-epac sensor in stable HEK293-Epac cells endogenously expressing β2AR or in CHO cells co-transfected with Epac and β2AR or the mutants. Cells were harvested with lifting buffer (20 mM HEPES, pH 7.4, 150 mM NaCl and 0.68 mM EDTA), centrifuged and resuspended in HBSS-HEPES (Hank's Balanced Salt Solution plus 20 mM HEPES, pH 7.4) containing 0-150 μM modulator or vehicle (for a final assay concentration of 0-100 μM). This cell suspension (100 μL) was pipetted into the wells of a 96 well plate (black with clear bottom). After 20 min in the dark at 37° C., 50 μL of HBSS-HEPES buffer at 37° C. containing 1B MX (1 mM final), ascorbic acid (1 mM final), and norepinephrine or epinephrine (0-100 μM final) was added. The CFP/YFP ratio of the Epac-cAMP FRET sensor was immediately measured for 15 min using wavelengths of 435 nm for excitation with 485 nm and 530 nm for emission using a SpectraMax M5 (Molecular Devices).

T1 sequence (P07550 whole entry, the tested form may be a part): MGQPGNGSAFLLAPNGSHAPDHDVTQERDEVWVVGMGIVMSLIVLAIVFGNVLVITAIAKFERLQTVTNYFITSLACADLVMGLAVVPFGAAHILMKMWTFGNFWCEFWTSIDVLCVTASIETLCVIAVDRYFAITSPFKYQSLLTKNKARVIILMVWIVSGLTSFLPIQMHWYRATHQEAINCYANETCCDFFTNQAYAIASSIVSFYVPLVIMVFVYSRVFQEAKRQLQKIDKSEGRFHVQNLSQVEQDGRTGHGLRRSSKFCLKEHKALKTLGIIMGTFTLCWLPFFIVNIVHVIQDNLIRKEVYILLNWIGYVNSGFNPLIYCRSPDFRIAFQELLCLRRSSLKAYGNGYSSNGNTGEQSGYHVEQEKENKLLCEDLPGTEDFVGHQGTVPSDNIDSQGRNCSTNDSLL
T2 sequence (P34971 whole entry): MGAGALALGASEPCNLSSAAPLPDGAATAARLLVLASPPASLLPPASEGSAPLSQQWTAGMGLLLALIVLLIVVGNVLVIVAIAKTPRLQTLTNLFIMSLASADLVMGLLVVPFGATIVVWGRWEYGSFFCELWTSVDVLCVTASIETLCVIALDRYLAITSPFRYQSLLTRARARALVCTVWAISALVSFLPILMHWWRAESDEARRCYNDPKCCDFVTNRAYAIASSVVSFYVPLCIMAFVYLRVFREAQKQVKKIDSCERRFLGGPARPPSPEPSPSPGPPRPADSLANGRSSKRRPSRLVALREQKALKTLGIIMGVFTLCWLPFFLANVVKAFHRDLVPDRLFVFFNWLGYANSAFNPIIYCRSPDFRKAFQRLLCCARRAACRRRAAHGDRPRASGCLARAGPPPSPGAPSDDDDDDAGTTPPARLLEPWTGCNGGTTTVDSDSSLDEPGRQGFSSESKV

Row | Compound | negative allosteric effect on norepinephrine-stimulated β-arrestin 2 recruitment (in words) [1] | inhibition at 30 µM [1] | other results
1 | Nc1nc(Nc2ccccc2)nc2cccc(Br)c12 [AS094, 5-Bromo-N^2-phenylquinazoline-2,4-diamine] | reduced allosteric modulation | 31 to 70% | –
2 | Nc1nc(Nc2ccccc2)nc2cccc(Cl)c12 [AS098, 5-Chloro-N^2-phenylquinazoline-2,4-diamine] | – | 31 to 70% | –
3 | Nc1nc(Nc2ccc(S(N)(=O)=O)cc2)nc2ccccc12 [AS197, 4-((4-Aminoquinazolin-2-yl)amino)benzenesulfonamide] | – | < 30% | –
4 | CNC(=O)c1ccc(Nc2nc(N)c3ccccc3n2)cc1 [AS198, 4-((4-Aminoquinazolin-2-yl)amino)-N-methylbenzamide] | – | < 30% | –
5 | COC(=O)c1ccc(Nc2nc(N)c3c(F)cccc3n2)c(O)c1 [AS202, Methyl 4-((4-amino-5-fluoroquinazolin-2-yl)amino)-3-hydroxybenzoate] | – | < 30% | –
6 | COC(=O)c1ccc(Nc2nc(N)c3c(Cl)cccc3n2)cc1 [AS228, Methyl 4-((4-amino-5-chloroquinazolin-2-yl)amino)benzoate] | – | < 30% | –
7 | Nc1nc(Nc2ccccc2)nc2c(Br)cccc12 [AS241, 8-Bromo-N^2-phenylquinazoline-2,4-diamine] | reduced allosteric modulation | 31 to 70% | –
8 | Nc1nc(Nc2ccccc2)nc2c(Cl)cccc12 [AS328, 8-Chloro-N^2-phenylquinazoline-2,4-diamine] | – | 31 to 70% | –
9 | Nc1nc(Nc2ccccc2)nc2ccc(Br)cc12 [AS408, 6-Bromo-N^2-phenylquinazoline-2,4-diamine] | – | – | potency at β1AR relative to β2AR [2]: small reduction in the potency; allosteric activity at α1AR [3]: weak NAM; allosteric activity at the other GPCRs tested [4]: no allosteric activity; effect of AS408 on agonist binding affinity at E122 mutants [5]: reduced relative to the wild-type receptor
10 | Nc1nc(Nc2ccccc2)nc2cc(Br)ccc12 [AS436, 7-Bromo-N^2-phenylquinazoline-2,4-diamine] | reduced allosteric modulation | 31 to 70% | –
11 | CCCNc1nc(N)c2ccccc2n1 [BRAC1-5] | reduces the negative allosteric effect | – | –
12 | Nc1nc(Nc2cccc(O)c2)nc2ccccc12 [BRAC1-23] | Reduction of the allosteric effect | – | –
13 | Nc1nc(Nc2ccccc2)nc2ccccc12 [BRAC1] | weak, negative allosteric regulation | – | negative allosteric regulation of cAMP accumulation (in words) [6]: weak, negative allosteric regulation
14 | Nc1nc(Nc2ccccc2)nc2ccc(Cl)cc12 [DD282, 6-Chloro-N^2-phenylquinazoline-2,4-diamine] | activity comparable to Br | 71 to 100% | –
15 | Nc1nc(Nc2ccccc2CO)nc2ccc(Br)cc12 [DD283, 6-Bromo-N^2-(2-hydroxymethyl)phenylquinazoline-2,4-diamine] | – | < 30% | –
16 | Nc1nc(Nc2ccccc2)nc2ccc(F)cc12 [DD284, 6-Fluoro-N^2-phenylquinazoline-2,4-diamine] | less potent | < 30% | –
17 | Brc1ccc2nc(Nc3ccccc3)ncc2c1 [DD288, 6-Bromo-/V-phenylquinazolin-2-amine] | attenuated negative allosteric effect | 31 to 70% | –
18 | Nc1nc(Nc2ccc3ccccc3c2)nc2ccc(Br)cc12 [DD290, 6-bromo-N2-(naphthalen-2-yl)quinazoline-2,4-diamine] | – | – | inhibition at 10 µM [1]: < 30%
19 | Nc1nc(Nc2cccc(CCC(=O)O)c2)nc2ccc(Br)cc12 [DD291, 3-(3-((4-amino-6-bromoquinazolin-2-yl)amino)phenyl)propanoic acid] | – | < 30% | –
20 | Nc1nc(Nc2ccccc2)nc2ccc(C(F)(F)F)cc12 [DD293, 6-Trifluoromethyl-N^2-phenylquinazoline-2,4-diamine] | activity comparable to Br | 71 to 100% | –
21 | Nc1nc(Nc2cccc(CCC(=O)OCC(O)CO)c2)nc2ccc(Br)cc12 (stereo not drawn) [DD294, 2,3-dihydroxypropyl-(3-((4-amino-6-bromoquinazolin-2-yl)amino)phenyl)propanoate] | – | < 30% | –
22 | COC(=O)c1ccc(Nc2nc(N)c3ccccc3n2)c(O)c1 [JT11, Methyl 4-((4-aminoquinazolin-2-yl)amino)-3-hydroxybenzoate] | – | – | inhibition at 10 µM [1]: < 30%
23 | Nc1nc(Nc2ccccc2O)nc2cccc(Cl)c12 [JT12, 2-((4-Amino-5-chloroquinazolin-2-yl)amino)phenol] | – | < 30% | –
24 | CC(C)c1ccc2nc(Nc3ccccc3)nc(N)c2c1 [ST238, 6-Isopropyl-N^2-phenylquinazoline-2,4-diamine] | – | 31 to 70% | –
25 | Nc1nc(Nc2ccccc2)nc2ccc(I)cc12 [ST239, 6-Iodo-N^2-phenylquinazoline-2,4-diamine] | activity comparable to Br | 71 to 100% | –
26 | Nc1nc(Nc2ccccc2)nc2ccc(-c3ccccc3)cc12 [ST240, N^2,6-Diphenylquinazoline-2,4-diamine] | further disruption of the negative allosteric effect | 31 to 70% | –
